Laboratory results: BindingDB's records for doi:10.1021/jm00352a017 (1983)

Experiments:
[1] = Michaelis-Menten constant for inhibition of rat kidney pyruvate kinase (PK-K)
[2] = Inhibition of rat kidney pyruvate kinase (PK-K) at 6.7 mM
[3] = Inhibition of rat kidney pyruvate kinase (PK-K)
[4] = Inhibition of rat liver pyruvate kinase (PK-L) at 3.6 mM

Row | Ki [3] [mM] | Structure (SMILES) | other results
1 | – | C[C@@H](OP(=O)(O)OP(=O)(O)O)[C@H]1OC(n2cnc3c(N)ncnc32)[C@H](O)[C@@H]1O (stereo partly specified) | Ki [1]: 8 mM; Ki [2]: 10.9 mM
2 | 2.9 | CCNc1nc2c(N)ncnc2n1C1O[C@H](COP(=O)(O)OP(=O)(O)O)[C@@H](O)[C@H]1O (stereo partly specified) | –
3 | 5 | CSc1nc2c(N)ncnc2n1C1O[C@H](COP(=O)(O)OP(=O)(O)O)[C@@H](O)[C@H]1O (stereo partly specified) | –
4 | 3.9 | CCSc1nc2c(N)ncnc2n1C1O[C@H](COP(=O)(O)OP(=O)(O)O)[C@@H](O)[C@H]1O (stereo partly specified) | –
5 | – | CO[C@H]1[C@@H](O)[C@H](n2cnc3c(N)ncnc32)O[C@@H]1COP(=O)(O)OP(=O)(O)O [[5-(6-amino-9H-purin-9-yl)-4-hydroxy-3-methoxytetrahydrofuran-2-yl]methyl trihydrogen diphosphate] | Ki [4]: 7 mM
